Experimental data taken from US7122203B2, “Stabilized formulations of 6-hydroxy-3-(-4-[2-(piperidin-1-yl) ethoxy]phenoxy)-2-(4-methoxyphenyl) benzo[b]thiophene and salts thereof” (Eli Lilly and Company, priority 2000, dated 2006).

Tests used:
Assay type in all cases: physicochemical
[1] = Hygroscopicity / moisture sorption isotherms; conditions: for water content: ambient relative humidities (about 50% R.H.); for water content / immediate weight gain (moisture): hydrochloride; for immediate weight gain (moisture): upon initial exposure to approximately 5% R.H.
Description: Hygroscopicity measurements were made for F-I and F-III using the VTI method as follows. Each sample was dried under vacuum at 60° C. until no further weight loss was detected, at which time the sample chamber was brought to 0% relative humidity. Moisture sorption isotherms were obtained at 25° C. using a VTI vacuum moisture balance with the following conditions: sample size 10–15 mg, adsorption/desorption range 0–95% relative humidity, step interval 5%, sample interval 10 minutes.
Moisture Sorption Isotherms were generated using a VTI SGA-100 flow instrument. The samples were analyzed at 25° C. from 0–95% relative humidity (RH) for adsorption and from 95–5% RH for desorption in steps of 5% RH. The adsorption and desorption isotherms were generated as a graph of the % weight change vs. % RH.

[2] = Aqueous solubility and dissolution rate of crystal forms
[3] = Physical stability of crystal forms (XRD at different relative humidities, variable temperature XRD)
Description: XRD patterns were obtained on a […] powder diffractometer, equipped with a CuKα source (λ=1.54056 Å) and a Kevex solid-state detector, operating at 50 kV and 40 mA. Each sample was scanned between 4° and 35° in 2θ. Samples were allowed to equilibrate for at least 30 minutes at the desired temperature and/or relative humidity before data collection. Variable temperature X-ray powder diffraction patterns were obtained on a […] powder diffractometer which was equipped with a CuKα source (λ=1.54056 Å) operated at 50 kV and 40 mA with a scintillation detector and nickel filter. The powder was packed into a top-loading, recessed temperature controlled holder and a smooth surface was obtained for diffraction. The sample was scanned from 2 to 35° 2θ at 2.5 seconds per step size of 0.04° beginning at 25° C. after an equilibration time of 5 minutes. Subsequent scans were obtained at increasing temperature increments of 25° C. to a maximum of 125° C.

| water content [1] | immediate weight gain (moisture) ([1]; 25° C.) [%] | aqueous solubilities and dissolution rates of the two forms (F-I vs F-III) [2] | physical stability over the entire relative humidity range [3] | weight increase in moisture sorption/desorption isotherm ([1]; over the range of 0–95% RH, 25° C.) [%] | higher aqueous solubility relative to F-III [2] [%] | thermodynamic stability among known forms of arzoxifene hydrochloride ([3]; ambient storage conditions) | change in diffraction pattern, variable temperature x-ray powder diffraction ([3]; up to 125° C.) | Compound |
| --- | --- | --- | --- | --- | --- | --- | --- | --- |
| about 2.2% | 1.5 | comparable | physically stable | – | – | – | – | COc1ccc(-c2sc3cc(O)ccc3c2Oc2ccc(OCCN3CCCCC3)cc2)cc1.Cl [F-I, 6-Hydroxy-3-(4-[2-(piperidin-1-yl)ethoxy]phenoxy)-2-(4-methoxyphenyl)benzo[b]thiophene hydrochloride] |
| about 3.7% | 1.7 | comparable | physically stable | – | – | – | – | COc1ccc(-c2sc3cc(O)ccc3c2Oc2ccc(OCCN3CCCCC3)cc2)cc1.Cl [F-III, 6-Hydroxy-3-(4-[2-(piperidin-1-yl)ethoxy]phenoxy)-2-(4-methoxyphenyl)benzo[b]thiophene hydrochloride] |
| – | – | – | – | 0.11 | ~10 | thermodynamically most stable known form | no significant change | COc1ccc(-c2sc3cc(O)ccc3c2Oc2ccc(OCCN3CCCCC3)cc2)cc1.Cl [F-V, 6-Hydroxy-3-(4-[2-(piperidin-1-yl)ethoxy]phenoxy)-2-(4-methoxyphenyl)benzo[b]thiophene hydrochloride] |
